Publication PMC8501045, “Addressing MRSA infection and antibacterial resistance with peptoid polymers” (Nature Communications, 2021)
≈ marks a conversion by molar mass, not a printed value. Where “and” joins values, the source holds several entries; their conditions need not be identical. Equal values may be shown once.

What was measured:
L. monocytogenes 1001 = assay: MIC assay, clinical isolate; format: cell-based, Listeria monocytogene; details: Listeria monocytogenes, 1001
Description: MRSA (S. aureus Mu50, S. aureus Newman, S. aureus USA400, S. aureus USA300 LAC, S. aureus USA300) were obtained from Shanghai Institute of Materia Medica, Chinese Academy of Sciences. All clinically isolated Gram-positive bacteria used in this study were isolated from patients with various infections, different ages and sexes in the Shanghai Ruijin Rehabilitation Hospital. All strains were cultured in Luria-Bertani (LB) medium at 37 °C before use.
Bacteria were cultured in LB medium at 37 °C for 10 h, and then the bacterial suspension was diluted in Mueller–Hinton (MH) medium to a cell density of 2 × 10^5 colony forming units (CFU)/mL as the working suspension. The poly(Naeg)20 was serially diluted by MH medium in a 96-well plate, and an equal volume of bacterial suspension was added into each well. The final concentration of the poly(Naeg)20 was ranging from 200 to 1.56 μg/mL, and the plates were incubated at 37 °C for 9 h. Wells with inoculum and no polymer were used as the positive control; wells with only MH medium were used as the blank. The optical density (OD) in each well was measured on a Molecular Devices SpectraMax M2 precision microplate reader. The percentage of bacteria growth was calculated from1 %cellgrowth=A600polymer-A600blank/A600control-A600blank×100
(§1) The test was independently repeated at least three times.

[1] = test system: S. aureus USA300 mature biofilm; assay: Activity against mature biofilm; format: cell-based, Staphylococcus aureus; details: for Biofilm survival(%): vancomycin, r4-r9 = 32, 64, 128, 256, 512, 1024 MIC
Description: The plate was incubated at 37 °C for 24 h to allow biofilm formation. […] Then MTT assay was used to determine the biofilm viability. Wells containing inoculum and without antibacterial agents were used as the positive control; wells containing only MH medium were used as the blank. The percentage of surviving cells within biofilm was calculated from5 %cellviability=A570polymer-A570blank/A570control-A570blank×100
as §1

[2] = test system: S. aureus USA300 LAC biofilm; assay: Mouse keratitis model, MRSA biofilm on contact lens; format: in vivo; details: 1.56 mg/mL topical
Description: The contact lenses were cut into discs with a diameter of 3.5 mm and placed in a 96-well plate. The discs were soaked with 150 μL of MH medium overnight. Then the discs were transferred to a new 96-well plate and 150 μL of S. aureus USA300 LAC suspension (10^5 CFU/mL in MH medium) was added into corresponding wells. The plate was incubated at 37 °C with shaking at 100 rpm. After 2 h incubation, the suspension was aspirated and the lenses were washed with PBS to remove any nonadherent cells, followed by the addition of 150 μL of fresh MH medium. The plate containing the contact lenses with adhered cells was incubated at 37 °C with shaking at 100 rpm for 18 h to allow biofilm formation.
Male balb/c mice (22–24 g) were intraperitoneally injected with cyclophosphamide (150 mg/kg at 4 days and 100 mg/kg at 1 day before inducing keratitis) for immunosuppression. […] In addition, 0.5% tetracaine hydrochloride eye drops were used as topical anesthesia and then a 2 mm-diameter filter paper disc containing 2 μL of 99% 1-heptanol was placed on the center of the cornea for 15 min. […] All mice were killed and the eyeballs of each mouse were collected immediately 30 min after the last treatment, followed by the quantitative analysis of bacterial burden.

S. epidermidis 9397 = assay: Mouse peritonitis model, CFU in organs, blood and IP fluid, S. epidermidis; format: in vivo; details: Figure 6e
Description: (§2) This infection model was conducted according to the previously reported method with slight modification. Female ICR mice (21–24 g) were used for MRSA-infected peritonitis model. Mice were infected by intraperitoneal administration of 0.2 mL of S. aureus USA300 LAC in saline (7.5 × 10^8 CFU/mL) supplemented with 5% mucin. […] Once the infected mice died, peritoneal lavage was performed by injecting 3.0 mL of saline into the peritoneal cavity and massaging the abdomen. Subsequently, the abdomen was opened and peritoneal fluid was recovered from the abdominal cavity for analysis. Blood samples were collected through cardiac puncture for analysis of CFU/mL. Then, different organs including the heart, liver, spleen, lung, and kidney were removed and homogenized in 0.1% TX-100 solution. The homogenate was serially diluted for plating on LB agar. After incubation at 37 °C for 14 h, the number of colonies on the plate was counted to calculate the bacteria burden. Surviving mice were euthanized at 48 h after infection. The blood, peritoneal fluid, and organs were collected for the determination of bacterial colonies. […] For the pretreatment group, mice were sacrificed and tissues were harvested to determine the CFU at 1 h post infection.
(§3) For experiments of S. epidermidis and S. haemolyticus infections, female ICR mice (22–24 g) were rendered neutropenic by treatment with 150 and 100 mg/kg of cyclophosphamide intraperitoneally at 4 days and 1 day prior to infection. Mice were infected by intraperitoneal administration of 0.2 mL of S. epidermidis 9397 (5.1 × 10^9 CFU/mL) or S. haemolyticus 0202 (2.6 × 10^9 CFU/mL) in saline. Other experiment conditions were similar to those in MRSA peritonitis model.

S. haemolyticus 0202 = assay: Mouse peritonitis model, CFU in organs, blood and IP fluid, S. haemolyticus; format: in vivo; details: Figure 6f
Description: as §2, §3

## CN[C@H](CC(C)C)C(=O)N[C@H]1C(=O)N[C@@H](CC(N)=O)C(=O)N[C@H]2C(=O)N[C@H]3C(=O)N[C@H](C(=O)N[C@H](C(=O)O)c4cc(O)cc(O)c4-c4cc3ccc4O)[C@H](O)c3ccc(c(Cl)c3)Oc3cc2cc(c3O[C@@H]2O[C@H](CO)[C@@H](O)[C@H](O)[C@H]2O[C@H]2C[C@](C)(N)[C@H](O)[C@H](C)O2)Oc2ccc(cc2Cl)[C@H]1O [Vancomycin]
L. monocytogenes 1001
  MIC: 0.39 mg/L (≈ 0.269 µM)
[1]
  concentration that eradicates mature biofilms of S. aureus: > 1024 × MIC
[1]; replicate 1
  Biofilm survival(%): 57.1927% and 41.3774% and 45.7038% and 29.4643% and 29.3131% and 28.1882%
[1]; replicate 2
  Biofilm survival(%): 57.8677% and 50.7936% and 39.7472% and 30.2942% and 28.1255% and 26.0416%
[2]
  reduction of the bacterial load of each eye of the mouse: ineffective
S. epidermidis 9397; individual mouse 1 of 6
  Log10(CFU/mL IP fluid): 6.824 Log10(CFU/mL)
  Log10(CFU/mL Blood): 4.311 Log10(CFU/mL)
  Log10(CFU/g Heart): 5.45 Log10(CFU/g)
  Log10(CFU/g Kidney): 6.633 Log10(CFU/g)
  Log10(CFU/g Liver): 7.125 Log10(CFU/g)
  Log10(CFU/g Lung): 6.477 Log10(CFU/g)
  Log10(CFU/g Spleen): 7.954 Log10(CFU/g)
S. epidermidis 9397; individual mouse 2 of 6
  Log10(CFU/mL IP fluid): 5.982 Log10(CFU/mL)
  Log10(CFU/mL Blood): 4.38 Log10(CFU/mL)
  Log10(CFU/g Heart): 5.747 Log10(CFU/g)
  Log10(CFU/g Kidney): 6.452 Log10(CFU/g)
  Log10(CFU/g Liver): 7.288 Log10(CFU/g)
  Log10(CFU/g Lung): 5.954 Log10(CFU/g)
  Log10(CFU/g Spleen): 7.349 Log10(CFU/g)
S. epidermidis 9397; individual mouse 3 of 6
  Log10(CFU/mL IP fluid): 4.068 Log10(CFU/mL)
  Log10(CFU/mL Blood): 2.602 Log10(CFU/mL)
  Log10(CFU/g Heart): 5.222 Log10(CFU/g)
  Log10(CFU/g Kidney): 4.81 Log10(CFU/g)
  Log10(CFU/g Liver): 4.887 Log10(CFU/g)
  Log10(CFU/g Lung): 6.211 Log10(CFU/g)
  Log10(CFU/g Spleen): 7.368 Log10(CFU/g)
S. epidermidis 9397; individual mouse 4 of 6
  Log10(CFU/mL IP fluid): 3.222 Log10(CFU/mL)
  Log10(CFU/mL Blood): 2.824 Log10(CFU/mL)
  Log10(CFU/g Heart): 5.315 Log10(CFU/g)
  Log10(CFU/g Kidney): 4.699 Log10(CFU/g)
  Log10(CFU/g Liver): 4.845 Log10(CFU/g)
  Log10(CFU/g Lung): 5.171 Log10(CFU/g)
  Log10(CFU/g Spleen): 5.666 Log10(CFU/g)
S. epidermidis 9397; individual mouse 5 of 6
  Log10(CFU/mL IP fluid): 3.067 Log10(CFU/mL)
  Log10(CFU/mL Blood): 0 Log10(CFU/mL)
  Log10(CFU/g Heart): 4.186 Log10(CFU/g)
  Log10(CFU/g Kidney): 4.119 Log10(CFU/g)
  Log10(CFU/g Liver): 3.985 Log10(CFU/g)
  Log10(CFU/g Lung): 3.564 Log10(CFU/g)
  Log10(CFU/g Spleen): 5.977 Log10(CFU/g)
S. epidermidis 9397; individual mouse 6 of 6
  Log10(CFU/mL IP fluid): 4.206 Log10(CFU/mL)
  Log10(CFU/mL Blood): 2.301 Log10(CFU/mL)
  Log10(CFU/g Heart): 4.735 Log10(CFU/g)
  Log10(CFU/g Kidney): 4.752 Log10(CFU/g)
  Log10(CFU/g Liver): 5.176 Log10(CFU/g)
  Log10(CFU/g Lung): 4.434 Log10(CFU/g)
  Log10(CFU/g Spleen): 6.041 Log10(CFU/g)
S. haemolyticus 0202; individual mouse 1 of 6
  Log10(CFU/mL IP fluid): 3.226 Log10(CFU/mL)
  Log10(CFU/mL Blood): 3.398 Log10(CFU/mL)
  Log10(CFU/g Heart): 4.437 Log10(CFU/g)
  Log10(CFU/g Kidney): 4.477 Log10(CFU/g)
  Log10(CFU/g Liver): 4.477 Log10(CFU/g)
  Log10(CFU/g Lung): 5.45 Log10(CFU/g)
  Log10(CFU/g Spleen): 6.652 Log10(CFU/g)
S. haemolyticus 0202; individual mouse 2 of 6
  Log10(CFU/mL IP fluid): 4.392 Log10(CFU/mL)
  Log10(CFU/mL Blood): 3.213 Log10(CFU/mL)
  Log10(CFU/g Heart): 5.504 Log10(CFU/g)
  Log10(CFU/g Kidney): 5.326 Log10(CFU/g)
  Log10(CFU/g Liver): 5.908 Log10(CFU/g)
  Log10(CFU/g Lung): 5.572 Log10(CFU/g)
  Log10(CFU/g Spleen): 7.228 Log10(CFU/g)
S. haemolyticus 0202; individual mouse 3 of 6
  Log10(CFU/mL IP fluid): 3.853 Log10(CFU/mL)
  Log10(CFU/mL Blood): 2.602 Log10(CFU/mL)
  Log10(CFU/g Heart): 4.593 Log10(CFU/g)
  Log10(CFU/g Kidney): 5 Log10(CFU/g)
  Log10(CFU/g Liver): 4.978 Log10(CFU/g)
  Log10(CFU/g Lung): 6.099 Log10(CFU/g)
  Log10(CFU/g Spleen): 6.728 Log10(CFU/g)
S. haemolyticus 0202; individual mouse 4 of 6
  Log10(CFU/mL IP fluid): 4.647 Log10(CFU/mL)
  Log10(CFU/mL Blood): 3.336 Log10(CFU/mL)
  Log10(CFU/g Heart): 5.198 Log10(CFU/g)
  Log10(CFU/g Kidney): 5.151 Log10(CFU/g)
  Log10(CFU/g Liver): 5.097 Log10(CFU/g)
  Log10(CFU/g Lung): 5.247 Log10(CFU/g)
  Log10(CFU/g Spleen): 6.799 Log10(CFU/g)
S. haemolyticus 0202; individual mouse 5 of 6
  Log10(CFU/mL IP fluid): 4.595 Log10(CFU/mL)
  Log10(CFU/mL Blood): 2.62 Log10(CFU/mL)
  Log10(CFU/g Heart): 4.862 Log10(CFU/g)
  Log10(CFU/g Kidney): 5.103 Log10(CFU/g)
  Log10(CFU/g Liver): 5.108 Log10(CFU/g)
  Log10(CFU/g Lung): 5.56 Log10(CFU/g)
  Log10(CFU/g Spleen): 6.226 Log10(CFU/g)
S. haemolyticus 0202; individual mouse 6 of 6
  Log10(CFU/mL IP fluid): 4.235 Log10(CFU/mL)
  Log10(CFU/mL Blood): 0 Log10(CFU/mL)
  Log10(CFU/g Heart): 5.445 Log10(CFU/g)
  Log10(CFU/g Kidney): 6.713 Log10(CFU/g)
  Log10(CFU/g Liver): 5.286 Log10(CFU/g)
  Log10(CFU/g Lung): 6.002 Log10(CFU/g)
  Log10(CFU/g Spleen): 6.995 Log10(CFU/g)
